# pIC50: −log10 of the molar value.
# Molecular target: T1, Recombinant human CBP containing the bromodomain (CBP-BD (1043-1159)) (Homo sapiens, UniProt Q92793)
# T1 construct: Recombinant human CBP bromodomain (CBP-BD (1043-1159)); made in house; host or cells: E. coli BL21-CodonPlus (DE3), modified pET vector
# Test: CBP Alphascreen binding assay
# Settings: read-out: CREBBP (CBP) IC50
# Procedure, shortened: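 Buffer: 50 mM HEPES pH 7.5, 50 mM NaCl, 0.01% BSA, 0.01% Triton X-100, 2 mM DTT. The signal was normalised to plate controls and fitted with a four-parameter curve to give IC50.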
# T1 sequence (Q92793 1081-1197): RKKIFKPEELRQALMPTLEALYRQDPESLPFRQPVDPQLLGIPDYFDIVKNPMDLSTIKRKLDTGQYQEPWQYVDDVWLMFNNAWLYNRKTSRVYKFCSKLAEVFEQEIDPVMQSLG
row,Compound,pIC50
1,"Cc1noc(C)c1-c1cnc2c(c1)c(-c1cnn(C(C)(C)C(=O)O)c1)cn2C(c1ccccn1)C1CCCC1 (centres unmarked) [P-0035, 2-(4-(1-(cyclopentyl(pyridin-2-yl)methyl)-5-(3,5-dimethylisoxazol-4-yl)-1H-pyrrolo[2,3-b]pyridin-3-yl)-1H-pyrazol-1-yl)-2-methylpropanoic acid]",6.00 to 10.00
2,"Cc1noc(C)c1-c1cnc2c(c1)c(-c1cnn(CC(=O)O)c1)cn2C(c1ccccn1)C1CCCC1 (centres unmarked) [P-0036, 2-(4-(1-(cyclopentyl(pyridin-2-yl)methyl)-5-(3,5-dimethylisoxazol-4-yl)-1H-pyrrolo[2,3-b]pyridin-3-yl)-1H-pyrazol-1-yl)acetic acid]",6.00 to 10.00
3,"Cc1noc(C)c1-c1cnc2c(c1)c(-c1cnn(CC(C)(C)O)c1)cn2C(c1ccccn1)C1CCCC1 (centres unmarked) [P-0037, 1-(4-(1-(cyclopentyl(pyridin-2-yl)methyl)-5-(3,5-dimethylisoxazol-4-yl)-1H-pyrrolo[2,3-b]pyridin-3-yl)-1H-pyrazol-1-yl)-2-methylpropan-2-ol]",5.10 to 6.00
4,"Cc1noc(C)c1-c1cnc2c(c1)c(-c1ccc(C(=O)O)c(Cl)c1)cn2C(c1ccccn1)C1CCCC1 (centres unmarked) [P-0038, 2-chloro-4-(1-(cyclopentyl(pyridin-2-yl)methyl)-5-(3,5-dimethylisoxazol-4-yl)-1H-pyrrolo[2,3-b]pyridin-3-yl)benzoic acid]",6.00 to 10.00
5,"COC(=O)c1cc(-c2cn(C(c3ccccn3)C3CCCC3)c3ncc(-c4c(C)noc4C)cc23)ccn1 (centres unmarked) [P-0040, methyl 4-(1-(cyclopentyl(pyridin-2-yl)methyl)-5-(3,5-dimethylisoxazol-4-yl)-1H-pyrrolo[2,3-b]pyridin-3-yl)picolinate]",6.00 to 10.00
6,"Cc1noc(C)c1-c1cnc2c(c1)c(-c1ccnc(C(=O)O)c1)cn2C(C1CC1)C1CC1 [P-0041, 4-(1-(dicyclopropylmethyl)-5-(3,5-dimethylisoxazol-4-yl)-1H-pyrrolo[2,3-b]pyridin-3-yl)picolinic acid]",6.00 to 10.00
7,"Cc1noc(C)c1-c1cnc2c(c1)c(-c1ccnc(C(=O)O)c1)cn2Cc1ccccc1 [P-0042, 4-(1-benzyl-5-(3,5-dimethylisoxazol-4-yl)-1H-pyrrolo[2,3-b]pyridin-3-yl)picolinic acid]",6.00 to 10.00
8,"Cc1noc(C)c1-c1cnc2c(c1)c(-c1ccnc(C(=O)O)c1)cn2C(c1ccccn1)C1CCC1 (centres unmarked) [P-0043, 4-(1-(cyclobutyl(pyridin-2-yl)methyl)-5-(3,5-dimethylisoxazol-4-yl)-1H-pyrrolo[2,3-b]pyridin-3-yl)picolinic acid]",6.00 to 10.00
9,"Cc1noc(C)c1-c1cnc2c(c1)c(-c1ccnc(C(=O)O)c1)cn2Cc1ccccn1 [P-0044, 4-(5-(3,5-dimethylisoxazol-4-yl)-1-(pyridin-2-ylmethyl)-1H-pyrrolo[2,3-b]pyridin-3-yl)picolinic acid]",6.00 to 10.00
10,"Cc1noc(C)c1-c1cnc2c(c1)c(-c1ccnc(C(=O)O)c1)cn2CC1CC1 [P-0045, 4-(1-(cyclopropylmethyl)-5-(3,5-dimethylisoxazol-4-yl)-1H-pyrrolo[2,3-b]pyridin-3-yl)picolinic acid]",6.00 to 10.00
11,"COC(=O)c1cc(-c2cn(C(c3ccccn3)C3CCC3)c3ncc(-c4c(C)noc4C)cc23)ccn1 (centres unmarked) [P-0046, methyl 4-(1-(cyclobutyl(pyridin-2-yl)methyl)-5-(3,5-dimethylisoxazol-4-yl)-1H-pyrrolo[2,3-b]pyridin-3-yl)picolinate]",6.00 to 10.00
12,"COc1cc(C(=O)O)ccc1-c1cn([C@@H](C)c2ccccn2)c2ncc(-c3c(C)noc3C)cc12 [P-0047, (S)-4-(5-(3,5-dimethylisoxazol-4-yl)-1-(1-(pyridin-2-yl)ethyl)-1H-pyrrolo[2,3-b]pyridin-3-yl)-3-methoxybenzoic acid]",6.00 to 10.00
13,"Cc1noc(C)c1-c1cnc2c(c1)c(-c1cccc(C(=O)O)c1)cn2Cc1ccccc1 [P-0048, 3-(1-benzyl-5-(3,5-dimethylisoxazol-4-yl)-1H-pyrrolo[2,3-b]pyridin-3-yl)benzoic acid]",6.00 to 10.00
14,"Cc1noc(C)c1-c1cnc2c(c1)c(-c1cccc(C(=O)O)c1)cn2Cc1ccccn1 [P-0049, 3-(5-(3,5-dimethylisoxazol-4-yl)-1-(pyridin-2-ylmethyl)-1H-pyrrolo[2,3-b]pyridin-3-yl)benzoic acid]",6.00 to 10.00
15,"Cc1noc(C)c1-c1cnc2c(c1)c(-c1cccc(C(=O)O)c1)cn2CC1CC1 [P-0050, 3-(1-(cyclopropylmethyl)-5-(3,5-dimethylisoxazol-4-yl)-1H-pyrrolo[2,3-b]pyridin-3-yl)benzoic acid]",6.00 to 10.00
16,"Cc1noc(C)c1-c1cnc2c(c1)c(C#CC(C)(C)C(=O)O)cn2Cc1ccccc1 [P-0051, 4-(1-benzyl-5-(3,5-dimethylisoxazol-4-yl)-1H-pyrrolo[2,3-b]pyridin-3-yl)-2,2-dimethylbut-3-ynoic acid]",6.00 to 10.00

row,Compound,pIC50
1,"COC(=O)c1cc(-n2cc(Cc3ccccc3)c3ncc(-c4c(C)noc4C)cc32)ccn1 [P-0052, methyl 4-(3-benzyl-6-(3,5-dimethylisoxazol-4-yl)-1H-pyrrolo[3,2-b]pyridin-1-yl)picolinate]",6.00 to 10.00
2,"Cc1noc(C)c1-c1cnc2c(Cc3ccccc3)cn(-c3ccnc(C(=O)O)c3)c2c1 [P-0053, 4-(3-benzyl-6-(3,5-dimethylisoxazol-4-yl)-1H-pyrrolo[3,2-b]pyridin-1-yl)picolinic acid]",6.00 to 10.00
3,"Cc1noc(C)c1-c1cnc2c(C(=O)c3ccccc3)cn(-c3ccnc(C(=O)O)c3)c2c1 [P-0054, 4-(3-benzoyl-6-(3,5-dimethylisoxazol-4-yl)-1H-pyrrolo[3,2-b]pyridin-1-yl)picolinic acid]",6.00 to 10.00
4,"Cc1noc(C)c1-c1cnc2c(c1)c(-c1ccc(C(=O)O)cc1OC(F)(F)F)cn2-c1ccc(C2CC2)nc1 [P-0388, 4-(1-(6-cyclopropylpyridin-3-yl)-5-(3,5-dimethylisoxazol-4-yl)-1H-pyrrolo[2,3-b]pyridin-3-yl)-3-(trifluoromethoxy)benzoic acid]",6.00 to 10.00
5,"Cc1noc(C)c1-c1cnc2c(c1)c(-c1ccc(C(=O)O)cc1OC(F)(F)F)cn2C1CCC(C#N)C1 (centres unmarked) [P-0389, 4-(1-(3-cyanocyclopentyl)-5-(3,5-dimethylisoxazol-4-yl)-1H-pyrrolo[2,3-b]pyridin-3-yl)-3-(trifluoromethoxy)benzoic acid]",6.00 to 10.00
6,"Cc1noc(C)c1-c1cnc2c(c1)c(-c1c(Cl)cc(C(=O)O)cc1OCC(F)F)cn2-c1cnc(C2CC2)nc1 [P-0390, 3-chloro-4-(1-(2-cyclopropylpyrimidin-5-yl)-5-(3,5-dimethylisoxazol-4-yl)-1H-pyrrolo[2,3-b]pyridin-3-yl)-5-(2,2-difluoroethoxy)benzoic acid]",6.00 to 10.00
7,"Cc1noc(C)c1-c1cnc2c(c1)c(-c1c(Cl)cc(C(=O)O)cc1OC1CCC1)cn2-c1cnc(C2CC2)nc1 [P-0391, 3-chloro-5-cyclobutoxy-4-(1-(2-cyclopropylpyrimidin-5-yl)-5-(3,5-dimethylisoxazol-4-yl)-1H-pyrrolo[2,3-b]pyridin-3-yl)benzoic acid]",6.00 to 10.00
8,"COc1ncc(-n2cc(-c3ccc(C(=O)O)cc3OC(F)(F)F)c3cc(-c4c(C)noc4C)cnc32)cn1 [P-0392, 4-(5-(3,5-dimethylisoxazol-4-yl)-1-(2-methoxypyrimidin-5-yl)-1H-pyrrolo[2,3-b]pyridin-3-yl)-3-(trifluoromethoxy)benzoic acid]",6.00 to 10.00
9,"Cc1noc(C)c1-c1cnc2c(c1)c(-c1c(Cl)cc(C(=O)O)cc1OC(C)C)cn2-c1cnc(C2CC2)nc1 [P-0393, 3-chloro-4-(1-(2-cyclopropylpyrimidin-5-yl)-5-(3,5-dimethylisoxazol-4-yl)-1H-pyrrolo[2,3-b]pyridin-3-yl)-5-isopropoxybenzoic acid]",6.00 to 10.00
10,"Cc1noc(C)c1-c1cnc2c(c1)c(-c1c(F)cc(C(=O)O)cc1OC1CC1)cn2C(C1CC1)C1CC1 [P-0394, 3-cyclopropoxy-4-(1-(dicyclopropylmethyl)-5-(3,5-dimethylisoxazol-4-yl)-1H-pyrrolo[2,3-b]pyridin-3-yl)-5-fluorobenzoic acid]",6.00 to 10.00
11,"Cc1noc(C)c1-c1cnc2c(c1)c(-c1c(Cl)cc(C(=O)O)cc1OC(F)(F)F)cn2-c1ncccc1C#N [P-0395, 3-chloro-4-(1-(3-cyanopyridin-2-yl)-5-(3,5-dimethylisoxazol-4-yl)-1H-pyrrolo[2,3-b]pyridin-3-yl)-5-(trifluoromethoxy)benzoic acid]",6.00 to 10.00
12,"Cc1noc(C)c1-c1cnc2c(c1)c(-c1c(Cl)cc(C(=O)O)cc1OC1CCC1)cn2-c1ncccc1C#N [P-0396, 3-chloro-4-(1-(3-cyanopyridin-2-yl)-5-(3,5-dimethylisoxazol-4-yl)-1H-pyrrolo[2,3-b]pyridin-3-yl)-5-cyclobutoxybenzoic acid]",6.00 to 10.00
13,"Cc1noc(C)c1-c1cnc2c(c1)c(-c1c(F)cc(C(=O)O)cc1OC1CC1)cn2C1CCOCC1 [P-0397, 3-cyclopropoxy-4-(5-(3,5-dimethylisoxazol-4-yl)-1-(tetrahydro-2H-pyran-4-yl)-1H-pyrrolo[2,3-b]pyridin-3-yl)-5-fluorobenzoic acid]",6.00 to 10.00
14,"CCOc1nc(C(=O)O)c(Cl)cc1-c1cn(C2CCOCC2)c2ncc(-c3c(C)noc3C)cc12 [P-0398, 3-chloro-5-(5-(3,5-dimethylisoxazol-4-yl)-1-(tetrahydro-2H-pyran-4-yl)-1H-pyrrolo[2,3-b]pyridin-3-yl)-6-ethoxypicolinic acid]",6.00 to 10.00
15,"Cc1noc(C)c1-c1cnc2c(c1)c(-c1ccc(C(=O)O)cc1OC(F)(F)F)cn2-c1ccc(=O)n(C)c1 [P-0399, 4-(5-(3,5-dimethylisoxazol-4-yl)-1-(1-methyl-6-oxo-1,6-dihydropyridin-3-yl)-1H-pyrrolo[2,3-b]pyridin-3-yl)-3-(trifluoromethoxy)benzoic acid]",6.00 to 10.00
16,"CCc1noc(C)c1-c1cnc2c(c1)c(-c1ccc(C(=O)O)cc1OC(F)(F)F)cn2C1CCOCC1 [P-0400, 4-(5-(3-ethyl-5-methylisoxazol-4-yl)-1-(tetrahydro-2H-pyran-4-yl)-1H-pyrrolo[2,3-b]pyridin-3-yl)-3-(trifluoromethoxy)benzoic acid]",6.00 to 10.00
